Toxic doses and inconclusive results are not listed. Rule as the data show it: active = T/C of 150% or more; inactive = T/C below 125%.
Tested on: L1210 leukemia ip in BDF1 mice, survival T/C
Experiment: NCI In Vivo Anticancer Drug Screen. Data for tumor model L1210 Leukemia (intraperitoneal) in B6D2F1 (BDF1) mice
Settings: endpoint: mean survival time, higher = longer survival
Method in brief: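 In this screen, tumor-bearing mice given compound are compared to those given vehicle, and their survival values are reported as a treated-to-control quotient.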

[1] = dose: 50.0 mg/kg/injection, schedule: Q01DX001 (ip), vehicle: saline
[2] = dose: 100.0 mg/kg/injection, schedule: Q01DX001 (ip), vehicle: saline
[3] = dose: 100.0 mg/kg/injection, schedule: Q01DX009 (ip), vehicle: saline with Tween-80
[4] = dose: 100.0 mg/kg/injection, schedule: Q04DX003 (ip), vehicle: Klucel (hydroxypropylcellulose) (HPC)
[5] = dose: 200.0 mg/kg/injection, schedule: Q04DX003 (ip), vehicle: Klucel (hydroxypropylcellulose) (HPC)

Measured: T/C

Cc1c(C)c(O)c(Br)c(C)c1O (tested in a mixture with another compound)
inactive: dose: 100.0 mg/kg/injection, schedule: Q04DX003 (ip), vehicle: saline with Tween-80 89 % of control

CC1=CC(=O)OC2(C1)CC1CCC2CN1C (stereo not given)
inactive: [1] 95 % of control | [2] 101 % of control

O=C=Nc1cccc2c(N=C=O)cccc12
inactive: [3] 91 % of control

CCCC(=O)/C=C/c1ccc(C)cc1
inactive: dose: 100.0 mg/kg/injection, schedule: Q04DX003 (ip), vehicle: saline 96 % of control | dose: 200.0 mg/kg/injection, schedule: Q04DX003 (ip), vehicle: saline 112 % of control | dose: 400.0 mg/kg/injection, schedule: Q04DX003 (ip), vehicle: saline 96 % of control

CCCNc1nc(N)[nH]c(=O)c1NC=O
inactive: dose: 55.0 mg/kg/injection, schedule: Q01DX Z (ip), vehicle: methylcellulose (MC) 105 % of control | dose: 83.0 mg/kg/injection, schedule: Q01DX Z (ip), vehicle: methylcellulose (MC) 109 % of control | dose: 125.0 mg/kg/injection, schedule: Q01DX Z (ip), vehicle: methylcellulose (MC) 109 % of control | dose: 180.0 mg/kg/injection, schedule: Q01DX Z (ip), vehicle: methylcellulose (MC) 97 % of control

C[Si](C)(c1ccc(C(=O)Cl)cc1)c1ccc(C(=O)Cl)cc1
inactive: dose: 100.0 mg/kg/injection, schedule: Q04DX002 (ip), vehicle: saline with Tween-80 96 % of control | dose: 200.0 mg/kg/injection, schedule: Q04DX002 (ip), vehicle: saline with Tween-80 96 % of control | dose: 400.0 mg/kg/injection, schedule: Q04DX002 (ip), vehicle: saline with Tween-80 100 % of control

c1ccc(P(OCCCCOP(c2ccccc2)c2ccccc2)c2ccccc2)cc1
inactive: [1] 95 % of control | dose: 100.0 mg/kg/injection, schedule: Q01DX001 (ip), vehicle: carboxymethylcellulose (CMC) 103 % of control | [2] 97 % of control | dose: 200.0 mg/kg/injection, schedule: Q01DX001 (ip), vehicle: carboxymethylcellulose (CMC) 114 % of control | dose: 200.0 mg/kg/injection, schedule: Q01DX001 (ip), vehicle: saline 86 % of control | dose: 400.0 mg/kg/injection, schedule: Q01DX001 (ip), vehicle: carboxymethylcellulose (CMC) 103 % of control | dose: 400.0 mg/kg/injection, schedule: Q01DX001 (ip), vehicle: saline 95 % of control

OC(Nc1ccccn1)(C(F)(F)F)C(F)(F)F
inactive: [2] 103 % of control

Cc1ccc(S(=O)(=O)N/N=C2/C(=N/NS(=O)(=O)c3ccc(C)cc3)c3cccc4cccc2c34)cc1
inactive: dose: 75.0 mg/kg/injection, schedule: Q01DX001 (ip), vehicle: carboxymethylcellulose (CMC) 91 % of control | dose: 150.0 mg/kg/injection, schedule: Q01DX001 (ip), vehicle: carboxymethylcellulose (CMC) 91 % of control | dose: 300.0 mg/kg/injection, schedule: Q01DX001 (ip), vehicle: carboxymethylcellulose (CMC) 88 % of control

CC(=O)Nc1cccc2nsnc12
inactive: [4] 100 % of control | [5] 93 % of control

O=c1ccc2c(ccc3ncccc32)o1
inactive: dose: 50.0 mg/kg/injection, schedule: Q01DX009 (ip), vehicle: carboxymethylcellulose (CMC) 87 % of control | dose: 50.0 mg/kg/injection, schedule: Q04DX003 (ip), vehicle: carboxymethylcellulose (CMC) 117 % of control | dose: 100.0 mg/kg/injection, schedule: Q01DX009 (ip), vehicle: carboxymethylcellulose (CMC) 98 % of control | dose: 100.0 mg/kg/injection, schedule: Q04DX003 (ip), vehicle: carboxymethylcellulose (CMC) 111 % of control | dose: 200.0 mg/kg/injection, schedule: Q04DX003 (ip), vehicle: carboxymethylcellulose (CMC) 93 % of control

O=C(O)CNC(=O)C(Br)Cc1ccccc1 (stereo not given)
inactive: [3] 96 % of control | dose: 200.0 mg/kg/injection, schedule: Q01DX009 (ip), vehicle: saline with Tween-80 89 % of control | dose: 400.0 mg/kg/injection, schedule: Q01DX009 (ip), vehicle: saline with Tween-80 89 % of control

CCCC1OCC(C)C(C)O1 (stereo not given)
inactive: dose: 50.0 mg/kg/injection, schedule: Q01DX009 (ip), vehicle: acetone 101 % of control | dose: 100.0 mg/kg/injection, schedule: Q01DX009 (ip), vehicle: acetone 98 % of control | dose: 100.0 mg/kg/injection, schedule: Q04DX003 (ip), vehicle: acetone 106 % of control | dose: 200.0 mg/kg/injection, schedule: Q01DX009 (ip), vehicle: acetone 112 % of control | dose: 200.0 mg/kg/injection, schedule: Q04DX003 (ip), vehicle: acetone 109 % of control | dose: 400.0 mg/kg/injection, schedule: Q04DX003 (ip), vehicle: acetone 123 % of control

COc1cc(=O)oc(/C=C/C=C/C=C/C(C)=C\C2(C)OC(C)C(C)(O)C2O)c1C (stereo not given)
inactive: dose: 12.5 mg/kg/injection, schedule: Q01DX009 (ip), vehicle: other 93 % of control | dose: 25.0 mg/kg/injection, schedule: Q01DX009 (ip), vehicle: other 100 % of control | dose: 50.0 mg/kg/injection, schedule: Q01DX009 (ip), vehicle: other 93 % of control

CCOC(=O)C(OCc1ccccc1)(C(=O)Cl)C(C)C (stereo not given)
inactive: dose: 6.25 mg/kg/injection, schedule: Q01DX009 (ip), vehicle: saline with Tween-80 98 % of control | dose: 6.25 mg/kg/injection, schedule: Q04DX003 (ip), vehicle: saline 93 % of control | dose: 12.5 mg/kg/injection, schedule: Q01DX009 (ip), vehicle: saline with Tween-80 100 % of control | dose: 12.5 mg/kg/injection, schedule: Q04DX003 (ip), vehicle: saline 97 % of control | dose: 25.0 mg/kg/injection, schedule: Q01DX009 (ip), vehicle: saline with Tween-80 98 % of control | dose: 25.0 mg/kg/injection, schedule: Q04DX003 (ip), vehicle: saline 92 % of control | dose: 50.0 mg/kg/injection, schedule: Q04DX003 (ip), vehicle: saline 103 % of control

NC(Cc1ccccc1)C(=O)NCCCl (stereo not given)
inactive: dose: 10.0 mg/kg/injection, schedule: Q01DX Z (ip), vehicle: saline 86 % of control | dose: 30.0 mg/kg/injection, schedule: Q01DX Z (ip), vehicle: saline 93 % of control | dose: 300.0 mg/kg/injection, schedule: Q01DX Z (ip), vehicle: saline 96 % of control

CCCCOB(CCl)OCCCC
inactive: dose: 6.25 mg/kg/injection, schedule: Q04DX003 (ip), vehicle: saline sonified 103 % of control | dose: 12.5 mg/kg/injection, schedule: Q04DX003 (ip), vehicle: saline sonified 97 % of control | dose: 25.0 mg/kg/injection, schedule: Q04DX003 (ip), vehicle: saline sonified 100 % of control

COc1ccc(/C=C/c2nc3ccccc3nc2/C=C/c2ccc(OC)c(OC)c2)cc1OC
inactive: dose: 100.0 mg/kg/injection, schedule: Q01DX009 (ip), vehicle: Klucel (hydroxypropylcellulose) (HPC) 95 % of control | [4] 88 % of control | dose: 200.0 mg/kg/injection, schedule: Q01DX009 (ip), vehicle: Klucel (hydroxypropylcellulose) (HPC) 86 % of control | [5] 91 % of control | dose: 400.0 mg/kg/injection, schedule: Q04DX003 (ip), vehicle: Klucel (hydroxypropylcellulose) (HPC) 97 % of control

C1CCC(N2CN(C3CCCCC3)CN(C3CCCCC3)C2)CC1
inactive: dose: 100.0 mg/kg/injection, schedule: Q04DX002 (ip), vehicle: Klucel (hydroxypropylcellulose) (HPC) 97 % of control | dose: 200.0 mg/kg/injection, schedule: Q04DX002 (ip), vehicle: Klucel (hydroxypropylcellulose) (HPC) 106 % of control | dose: 400.0 mg/kg/injection, schedule: Q04DX002 (ip), vehicle: Klucel (hydroxypropylcellulose) (HPC) 115 % of control
